# Target: human SCD1 (Homo sapiens (Human), UniProt O00767)
# Experiment: Yeast growth assay, strain expressing human SCD1 as the sole desaturase (reduced growth as surrogate for SCD inhibition)
# Format: cell-based
# Details: yeast with OLE1 deleted expressing human SCD1 from a plasmid; growth read as OD600 after 40 h at 30° C.; top drug concentration 33.3 μM
# Method: (§1) Strains expressing SCD1 or SCD5 as the sole desaturase, the human SCD1 and SCD5 genes were used to evaluate inhibition of SCD1/SCD5 using reduced growth as a surrogate for SCD inhibition. These yeast strains express human SCD1 or SCD5 from a plasmid harbored in a strain in which the yeast OLE1 gene is deleted.
# (§2) All compound profiling experiments were performed using the same basic protocol. Yeast were cultured using standard techniques in complete synthetic media lacking uracil and containing yeast nitrogen base supplemented with 2% (w/v) glucose (SD-Ura) Starter cultures were inoculated in 3 mL SD-Ura media containing 0.01% tween and 0.2 mM palmitoleic and oleic acid. Cultures were incubated overnight in a 30° C. shaker incubator (225 rpm). Saturated morning cultures were centrifuged, washed in SD-Ura media lacking TWEEN-20 and fatty acids, and then diluted 1:20 in fresh SD-Ura media also lacking TWEEN-20 and fatty acids.
# (§3) Compound administration was performed in two separate steps. First, 15 μL of SD-Ura was dispensed into clear 384-well assay plates using a MULTIDROP™ Combi reagent dispenser. […] The cultures described above were centrifuged and washed with media lacking TWEEN-20 or oleic and palmitoleic acids.
# (§4) After yeast delivery, assay plates were incubated under humidified conditions at 30° C. for 40 h. Yeast growth was monitored by reading the OD600 of each well using a microplate reader (Perkin Elmer EnVision™).
# human SCD1, sequence (O00767 whole entry): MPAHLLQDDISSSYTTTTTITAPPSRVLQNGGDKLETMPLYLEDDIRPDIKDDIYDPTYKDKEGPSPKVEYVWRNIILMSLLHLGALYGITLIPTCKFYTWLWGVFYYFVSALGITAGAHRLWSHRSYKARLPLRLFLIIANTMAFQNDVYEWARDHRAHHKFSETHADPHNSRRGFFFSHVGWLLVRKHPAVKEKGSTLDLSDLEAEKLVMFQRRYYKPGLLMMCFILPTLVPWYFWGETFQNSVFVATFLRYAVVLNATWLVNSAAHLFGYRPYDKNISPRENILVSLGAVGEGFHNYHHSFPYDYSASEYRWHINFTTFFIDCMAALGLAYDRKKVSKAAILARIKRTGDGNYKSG
row,IC50 [µM],Compound
1,> 45,O=C(Nc1cnn(Cc2cc(F)ccc2C(F)(F)F)c1)c1cc(-c2ccccn2)on1 [Compound 77]
2,> 45,O=C(c1cc(-c2ccc3c(c2)OCO3)on1)N1CC(Nc2ccccc2)C1 [Compound 221]
3,> 45,O=C(Nc1cnn(Cc2ccc(F)cc2)c1)c1cc(-c2ccccc2)on1 [Compound 112]
4,> 45,COc1cccc(C2CCCN2C(=O)c2cc(-c3ccc4c(c3)OCO4)on2)c1 (stereo not shown) [Compound 365]
5,40.2,COc1ccc(-c2cc(C(=O)N3CCCC3c3ccccc3F)no2)nc1 (stereo not shown) [Compound 415]
6,3.9,"O=C(Nc1cnn(Cc2cccc(F)c2)c1)c1cc(Cl)on1 [Compound 105, 5-chloro-N-(1-(3-fluorobenzyl)-1H-pyrazol-4-yl)isoxazole-3-carboxamide]"
7,> 45,O=C(c1cc(-c2ccc3c(c2)OCO3)on1)N1CCCC1c1ccc(Br)cc1 (stereo not shown) [Compound 389]
8,> 45,O=C(c1cc(-c2ccc3c(c2)OCO3)on1)N1CCCC1c1ccncc1F (stereo not shown) [Compound 460]
9,> 45,"O=C(Nc1cnn(Cc2ccccc2)c1)c1cc(-c2ccccc2F)on1 [Compound 38, N-(1-benzylpyrazol-4-yl)-5-(2-fluorophenyl)isoxazole-3-carboxamide]"
10,> 45,O=C(c1cc(-c2ccco2)on1)N1CC2(CCC2)C1 [Compound 246]
11,33,O=C(c1cc(N2CCOCC2)on1)N1CC(c2ccccc2)C1 [Compound 248]
12,3.27,"O=C(c1cc(-c2ccc3c(c2)OCO3)on1)N1CC=C(c2cc(F)ccc2Cl)CC1 [Compound 306, [5-(1,3-benzodioxol-5-yl)isoxazol-3-yl]-[4-(2-chloro-5-fluoro-phenyl)-3,6-dihydro-2H-pyridin-1-yl]methanone]"
13,> 45,CC(C)c1cc(C(=O)N2CC(Cc3ccccc3)C2)no1 [Compound 251]
14,> 45,O=C(c1cc(-c2ccc3c(c2)OCO3)on1)N1CCCC1c1nc2ccccc2o1 (stereo not shown) [Compound 461]
15,> 45,"CC1CN(c2ccccc2)CCN1C(=O)c1cc(-c2ccc3c(c2)OCO3)on1 (stereo not shown) [Compound 270, (5-(benzo[d][1,3]dioxol-5-yl)isoxazol-3-yl)(2-methyl-4-phenylpiperazin-1-yl)methanone]"
16,> 45,COc1ccc([C@H]2CCCN2C(=O)c2cc(-c3ccc4c(c3)OCO4)on2)cc1 [Compound 360]
17,> 45,O=C(c1cc(-c2ccccc2)on1)N1CCC2(CCN(c3ccccc3)C2)C1 (stereo not shown) [Compound 341]
18,> 45,N#Cc1ccc(C2CCCN2C(=O)c2cc(-c3ccc4c(c3)OCO4)on2)cc1 (stereo not shown) [Compound 395]
19,> 45,O=C(Nc1cnn(Cc2ccccc2)c1)c1cc(N2CCNCC2)on1 [Compound 190]
20,> 45,O=C(c1cc(-c2ccc3c(c2)OCO3)on1)N1CCC(O)(c2ccccc2)CC1 [Compound 300]
21,25,"CC(C)c1cc(C(=O)Nc2cnn(Cc3cnccc3C(F)(F)F)c2)no1 [Compound 161, 5-isopropyl-N-(1-((4-(trifluoromethyl)pyridin-3-yl)methyl)-1H-pyrazol-4-yl)isoxazole-3-carboxamide]"
22,1.57,"O=C(c1cc(-c2ccc3c(c2)OCO3)on1)N1CC(c2ccccc2)C1 [Compound 217, [5-(1,3-benzodioxol-5-yl)isoxazol-3-yl]-(3-phenylazetidin-1-yl)methanone]"
23,> 45,O=C(c1cc(-c2ccccc2Cl)on1)N1CCC(c2ccccc2)C1 (stereo not shown) [Compound 333]
24,> 45,"O=C(Nc1cnn(Cc2ccc(F)cc2)c1)c1cc(-c2ccco2)on1 [Compound 18, N-[1-[(4-fluorophenyl)methyl]pyrazol-4-yl]-5-(2-furyl)isoxazole-3-carboxamide]"

row,IC50 [µM],Compound
1,> 45,O=C(c1cc(-c2ccc3c(c2)OCO3)on1)N1CCCC1c1ccc(F)cc1 (stereo not shown) [Compound 368]
2,0.03,"CC(C)c1cc(C(=O)Nc2cnn(Cc3cccc(F)c3)c2)no1 [Compound 60, N-(1-(3-fluorobenzyl)-1H-pyrazol-4-yl)-5-isopropylisoxazole-3-carboxamide]"
3,0.011,"O=C(Nc1cnn(Cc2cccc(F)c2)c1)c1cc(C2=CCCCC2)on1 [Compound 85, 5-cyclohexenyl-N-(1-(3-fluorobenzyl)-1H-pyrazol-4-yl)isoxazole-3-carboxamide]"
4,> 45,O=C(Nc1cnn(Cc2ccccc2)c1)c1cc(Cl)on1 [Compound 180]
5,9.4,O=C(Nc1cnn(Cc2ccccc2F)c1)c1cc(-c2ccccc2)on1 [Compound 111]
6,0.21,CC1(c2cc(C(=O)Nc3cnn(Cc4ccccc4)c3)no2)COC1 [Compound 121]
7,2,"O=C(Nc1cnn(Cc2ccccc2)c1)c1cc(N2CC[C@@H](O)C2)on1 [Compound 186, (R)—N-(1-benzyl-1H-pyrazol-4-yl)-5-(3-hydroxypyrrolidin-1-yl)isoxazole-3-carboxamide]"
8,4.7,O=C(Nc1cnn(Cc2ccccc2)c1)c1cc(-c2ncccc2F)on1 [Compound 122]
9,37.1,O=C(c1cc(-c2ccc3c(c2)OCO3)on1)N1CC2(CC(c3ccccc3)C2)C1 [Compound 228]
10,0.01,"O=C(Nc1cnn(Cc2ccccc2)c1)c1noc2c1CCCC2 [Compound 156, N-(1-benzyl-1H-pyrazol-4-yl)-4,5,6,7-tetrahydrobenzo[d]isoxazole-3-carboxamide]"
11,> 45,COC1(c2ccccc2)CCN(C(=O)c2cc(-c3ccccc3)on2)CC1 [Compound 323]
12,0.058,"O=C(Nc1cnn(Cc2ccccc2)c1)c1cc(N2CCCCC2)on1 [Compound 159, N-(1-benzyl-1H-pyrazol-4-yl)-5-(piperidin-1-yl)isoxazole-3-carboxamide]"
13,> 45,O=C(c1cc(-c2ccc3c(c2)OCO3)on1)N1CCCC1c1cccc(Br)c1 (stereo not shown) [Compound 388]
14,0.012,"CC(C)(C)OC(=O)N1CCN(c2cc(C(=O)Nc3cnn(Cc4ccccc4)c3)no2)CC1 [Compound 185, tert-butyl 4-(3-(1-benzyl-1H-pyrazol-4-ylcarbamoyl)isoxazol-5-yl)piperazine-1-carboxylate]"
15,> 45,O=C(c1cc(-c2ccc3c(c2)OCO3)on1)N1CCCC1c1cccc(F)c1 (stereo not shown) [Compound 367]
16,36.3,Cn1cc(-c2cc(C(=O)N3CCC[C@H]3c3ccccc3)no2)ccc1=O [Compound 429]
17,> 45,O=C(c1cc(-c2ccc3c(c2)OCO3)on1)N1CCCc2cccc(F)c21 [Compound 264]
18,> 45,C[C@@H]1CCCN1C(=O)c1cc(-c2ccc3c(c2)OCO3)on1 [Compound 370]
19,> 45,COc1ccc(C2CCCN2C(=O)c2cc(-c3ccc4c(C)nn(C)c4c3)on2)cc1 (stereo not shown) [Compound 394]
20,0.02,"C=C(C)c1cc(C(=O)Nc2cnn(Cc3cccc(F)c3)c2)no1 [Compound 58, N-(1-(3-fluorobenzyl)-1H-pyrazol-4-yl)-5-(prop-1-en-2-yl)isoxazole-3-carboxamide]"
21,> 45,COc1ccc(-c2cc(C(=O)N3CC(Cc4ccccc4)C3)no2)nn1 [Compound 256]
22,> 45,COC1CCN(c2cc(C(=O)N3CC(c4ccccc4)C3)no2)CC1 [Compound 249]
23,> 45,"O=C(c1cc(-c2ccccc2)on1)N1CCC(c2cccc(F)c2)CC1 [Compound 307, [4-(3-fluorophenyl)-1-piperidyl]-(5-phenylisoxazol-3-yl)methanone]"

row,Compound,IC50 [µM]
1,"O=C(Nc1cc(-c2ccco2)on1)c1cnn(Cc2ccccc2)c1 [Compound 49, 1-benzyl-N-[5-(2-furyl)isoxazol-3-yl]pyrazole-4-carboxamide]",> 45
2,"O=C(c1cc(-c2ccc(Cl)cn2)on1)N1CC(c2ccccc2)C1 [Compound 241, (5-(5-chloropyridin-2-yl)isoxazol-3-yl)(3-phenylazetidin-1-yl)methanone]",3.38
3,"O=C(Nc1cnn(Cc2ccccc2)c1)c1cc(-c2cnco2)on1 [Compound 149, N-(1-benzyl-1H-pyrazol-4-yl)-5-(oxazol-5-yl)isoxazole-3-carboxamide]",> 45
4,"O=C(Nc1cnn(Cc2ccccc2)c1)c1cc(-c2ccco2)no1 [Compound 11, N-(1-benzylpyrazol-4-yl)-3-(2-furyl)isoxazole-5-carboxamide]",0.05
5,"O=C(Nc1cnn(Cc2ccccc2)c1)c1cc(N2CCCC2)on1 [Compound 178, N-(1-benzyl-1H-pyrazol-4-yl)-5-(pyrrolidin-1-yl)isoxazole-3-carboxamide]",0.01
6,"Cc1ncc(-c2cc(C(=O)Nc3cnn(Cc4ccccc4)c3)no2)o1 [Compound 164, N-(1-benzyl-1H-pyrazol-4-yl)-5-(2-methyloxazol-5-yl)isoxazole-3-carboxamide]",11
7,"N#Cc1ccc(-c2cc(C(=O)N3CCC(c4ccccc4)CC3)no2)c(F)c1 [Compound 325, 3-fluoro-4-(3-(4-phenylpiperidine-1-carbonyl)isoxazol-5-yl)benzonitrile]",0.16
8,"O=C(Nc1cnn(CC2CCCCC2)c1)c1cc(-c2ccco2)on1 [Compound 26, N-[1-(cyclohexylmethyl)pyrazol-4-yl]-5-(2-furyl)isoxazole-3-carboxamide]",> 45

# Target: human SCD5 (Homo sapiens (Human), UniProt Q86SK9)
# Experiment: Yeast growth assay, strain expressing human SCD5 as the sole desaturase (reduced growth as surrogate for SCD inhibition)
# Format: cell-based
# Details: yeast with OLE1 deleted expressing human SCD5 from a plasmid; growth read as OD600 after 40 h at 30° C.; top drug concentration 33.3 μM
# Method: as §1, §2, §3, §4
# human SCD5, sequence (Q86SK9 whole entry): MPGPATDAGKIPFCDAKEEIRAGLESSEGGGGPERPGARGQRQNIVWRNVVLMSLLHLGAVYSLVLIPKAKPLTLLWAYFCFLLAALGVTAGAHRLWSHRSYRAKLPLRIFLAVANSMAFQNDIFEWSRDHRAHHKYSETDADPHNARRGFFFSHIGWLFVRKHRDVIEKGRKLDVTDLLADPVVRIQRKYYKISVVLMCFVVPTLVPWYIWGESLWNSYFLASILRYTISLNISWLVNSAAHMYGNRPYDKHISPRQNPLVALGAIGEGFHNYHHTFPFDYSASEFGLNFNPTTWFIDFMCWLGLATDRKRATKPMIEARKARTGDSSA
row,IC50 [µM],Compound
1,> 45,O=C(Nc1cnn(Cc2cc(F)ccc2C(F)(F)F)c1)c1cc(-c2ccccn2)on1 [Compound 77]
2,> 45,O=C(c1cc(-c2ccc3c(c2)OCO3)on1)N1CC(Nc2ccccc2)C1 [Compound 221]
3,> 45,O=C(Nc1cnn(Cc2ccc(F)cc2)c1)c1cc(-c2ccccc2)on1 [Compound 112]

# Reference: patent US10919885B2, “Compounds and uses thereof” (Yumanity Therapeutics, Inc., priority 2018, dated 2021)
